Laboratory results published in US10111902B2, “Polymers for reversing heparin-based anticoagulation” (University of British Columbia, priority 2011, dated 2018).

Key:
blood = experiment: Blood compatibility at 1 mg/ml; settings: footnote [3] to protamine: showed complement activation, platelet activation, behaved like an anticoagulant, massive hemolysis
ctDNA = experiment: Binding affinity of polymers for ctDNA; settings: buffered water (pH 7.2), 50 mM NaCl, 25° C

C50 (nM) [1] (ctDNA): 2788 nM
Compound: NCCCNCCCCNCCCN [Tetramine (spermine), spermine]
Blood compatibility at 1 mg/ml (blood): poor
